Here are results for 3 compounds from patent US11376261B2, “Methods for diagnosing and managing treatment of atopic dermatitis” (University of Cincinnati, priority 2017, dated 2022).

Where two headings read alike, the source gives them in different places.

In assay [1] the test system is AD skin lesions. Kind of assay: Pre- vs post-treatment cutaneous gene expression, betamethasone and pimecrolimus (NCBI GEO GSE32473), overlap with 89ADGES. The format is in vivo, human. To be noted: application to AD skin lesions, Fold Change ≥2.0, p-value<0.05. As for the experimental part: (§1) Pre- and post-treatment gene expression datasets have been retrieved from publicly accessible database NCBI GEO, including datasets related to three widely-used treatments for AD: betamethasone and pimecrolimus (NCBI GEO data GSE32473), and dupilumab 300 mg (NCBI GEO data GSE59294).
Members of 89ADGES that are differentially regulated due to the application of betamethasone to AD skin lesions. […] CCL18, MSMB, SERPINB3 and SERPINB4 genes are associated with multiple array IDs.
BTC, CCL18, MSMB, IL-37, SERPINB3 and SERPINB4 genes are associated with multiple array IDs.
(§2) FIG. 6 is a table showing expression of members of the ECZEMA55 gene panel compared to normal skin. Expression changes are due to different treatment options. Betamethasone, pimecrolimus, and dupilumab are shown. Note direction and magnitude of treatment-related expression change for each gene. Treatment inducing change in a direction opposite to that occurring in ECZEMA55 can drive treatment-associated health benefits.

The test system of assay [2] is AD skin lesions. Kind of assay: Pre- vs post-treatment cutaneous gene expression, dupilumab 300 mg (NCBI GEO GSE59294), overlap with 89ADGES. Format: in vivo, human. To be noted: administration of dupilumab 300 mg, Fold Change ≥2.0, p-value<0.05. As for the experimental part:
as §1
CCL18, IL-37, SERPINB3 and SERPINB4 genes are associated with multiple array IDs.
Samples in Dupilumab dataset include GSE59294.
as §2

For assay [3], the system named is atopic dermatitis. In words: Symptom score of paired patient samples (pEASI reduction in GSE32473; pre-/post-treatment EASI in GSE59294). Format: in vivo, human. On the procedure: Gene expression data related to ECZEMA55 genes were extracted for pre- and post-treatment samples. Values were expressed as post-treatment/pre-treatment ratio. Variable selection or feature selection was performed by clustering of 55 genes into smaller number of coherent clusters and identifying the most representative gene per cluster. Representative genes were used to build a regression model which can be used to efficiently model the data. Outcome variable was defined either as the reduction in symptom score (available as per subject pEASI reduction; pEASI=partial EASI reduction in dataset GSE32473) or as the post-treatment symptom score (taking pre-treatment symptom score as an independent covariate and per subject pre-treatment symptom scores is available, as in the dataset GSE59294). A regression model was generated and regression trees were constructed. Classification/prediction and efficiency of the model were determined. Samples in Dupilumab dataset include GSE59294. […] We therefore added pre-treatment symptom score for analysis and for generating regression models

Another assay deals with ECZEMA55 genes. Kind of assay: Quantitative RT-PCR of ECZEMA55 genes in pre- and post-treatment skin biopsy of an AD patient (Example 7). Format: in vivo, human. The settings on record: one AD patient; 600 mg then two 300 mg s.c. injections over 4 weeks. As for the experimental part: An AD patient comes to the clinic with severe itch and lesions on at least 45% of their body surface. Symptoms indicate a possible diagnosis of atopic dermatitis. They are not sufficiently controlled by topical treatments like pimecrolimus and betamethasone. The patient is advised to begin dupilumab treatment. Duplimumab is administered by subcutaneous injection at recommended dosing for adult patients, which is initially at a dose of 600 mg, followed by 300 mg administered every two weeks. The patient is given one 600 mg injection followed by two 300 mg injections over the course of 4 weeks. Pre- and post-treatment samples are collected and stored in RNA later solution (Invitrogen) at −80° C.
Pre- and post-treatment skin biopsy is performed using a minimally invasive disposable punch. The skin biopsy site is swabbed with isopropyl alcohol (70%) and anesthetized with local anesthetic (1 mL of 1% lidocaine+adrenaline). Using a punch biopsy needle, a 4 mm^2 full thickness skin biopsy from the lesion is obtained and stored in RNA later solution and sent to the diagnostic lab to perform RT-PCR assay.
RNA is isolated from the tissue and subjected to quantitative RT-PCR to compare the levels of expression of the ECZEMA55 genes of the patient's tissue to normal healthy skin. […] The treatment is assessed as effective and the patient is advised to receive further dupilumab treatment doses.

In assay [4] the test system is atopic dermatitis. The settings on record: Dupilumab 300 mg, GSE59294, cited from earlier work; for EASI-POST: post-treatment; for EASI-PRE: pre-treatment.

Consider `C[C@H]1C[C@H]2[C@@H]3CCC4=CC(=O)C=C[C@]4(C)[C@@]3(F)[C@@H](O)C[C@]2(C)[C@@]1(O)C(=O)CO` [betamethasone], for which the “Number of 89ADGES genes differentially regulated in treated biopsy samples compared to baseline pre-treatment condition” value with AD skin lesions [1] worked out at 45 genes.

Turning to `CC[C@@H]1/C=C(\C)C[C@H](C)C[C@H](OC)[C@H]2O[C@@](O)(C(=O)C(=O)N3CCCC[C@H]3C(=O)O[C@H](/C(C)=C/[C@@H]3CC[C@H](Cl)[C@H](OC)C3)[C@H](C)[C@@H](O)CC1=O)[C@H](C)C[C@@H]2OC` [pimecrolimus], the “Number of 89ADGES genes differentially regulated in treated biopsy samples compared to baseline pre-treatment condition” value in the assay on AD skin lesions [1] stood at 41 genes.

Regarding “dupilumab: fully humanized monoclonal IgG4 antibody that inhibits IL-4 and IL-13 signaling by binding the IL-4Rα subunit”, in the assay on AD skin lesions [2], the “Number of 89ADGES genes differentially regulated in treated biopsy samples compared to baseline pre-treatment condition” value is 42 genes. The EASI-post/pre was 0.263 in the assay on atopic dermatitis [3] (Patient 1, Dupilumab 300 mg); 0.122 in the assay on atopic dermatitis [3] (Patient 2, Dupilumab 300 mg); 0.044 in the assay on atopic dermatitis [3] (Patient 3, Dupilumab 300 mg). The “Direction of ECZEMA55 gene expression change after treatment” value in the assay with ECZEMA55 genes was “opposite to gene expression in AD disease state compared to healthy skin”. In addition, in the assay on ECZEMA55 genes, the “Number of ECZEMA55 genes with expression changed compared to pre-treatment” value was “about 30 genes”. Besides, the EASI-POST in the assay on atopic dermatitis [4] (Patient 1) is 9.105; in the assay on atopic dermatitis [4] (Patient 2), 3.835; with atopic dermatitis [4] (Patient 3), 1.526. Besides, the EASI-PRE is reported as 34.6 in the assay with atopic dermatitis [4] (Patient 1), 31.45 in the assay with atopic dermatitis [4] (Patient 2) and 34.65 in the assay with atopic dermatitis [4] (Patient 3).
